The results in this text go back to US7479561B2, “4-(2,4-dichloro-5-methoxyphenyl)amino-6-methoxy-7-{[5-substituted-amino)methyl]-3-furyl}-3-quinolinecarbonitriles as kinase inhibitors” (Wyeth, priority 2004, dated 2009).

“And” between values parts separate entries of the source, which are not always exact repeats. Identical values can stand only once. Like-named read-outs stand apart in the source and are kept apart here.

The target of data set [1] is T1, Recombinant human Src enzyme (Homo sapiens, UniProt P12931).
T1 construct: purchased PanVera P3044
Put plainly: Src Kinase Assay (LANCE FRET). It counts as biochemical. How it is done: Recombinant human Src enzyme was obtained from PanVera (P3044). […] Homogeneous fluorescence resonance energy transfer kinase assays were performed using the europium/APC detection format (LANCE, Perkin Elmer). Src enzyme (10 ng) was mixed with biotinylated peptide (final concentration 2 μM), 50 mM Hepes (pH 7.5), 10 mM MgCl2, 20 ug/ml BSA, 0.001% Brij-35 (Sigma), 100 μM ATP, 1% DMSO. The kinase reaction was incubated for 70 min at 37° C. The reaction was stopped with EDTA at a final concentration of 30 mM EDTA/25 mM Hepes (pH 7.5)/10 μg/ml BSA. The mixture was combined with Eu-labeled anti-phosphotyrosine antibody PT66 (Perkin Elmer, AD0068) and Streptavidin Surelight-APC (Perkin Elmer, CR130-100) in 50 mM Hepes (pH 7.5)/20 μg/ml BSA, and incubated for 30 min according to manufacturer's specifications. […] Multiple entries for a given compound indicate that it was tested multiple times.
Background: TR-FRET usually uses a lanthanide donor and a delayed reading to cut background.

Data set [2] concerns the target Rat2 fibroblasts stably transformed with v-Src/Hu c-Src fusion gene (Homo sapiens, UniProt P12931, cells depend on it, form not given). In words: Anchorage Independent Src-transformed Fibroblast Proliferation Assay. In kind it is cell-based, rat. The text has this:
Rat2 fibroblasts stably transformed with a plasmid containing a CMV promotor controlled v-Src/Hu c-Src fusion gene in which the catalytic domain of human c-Src was inserted in place of the v-Src catalytic domain in the v-Src gene are used for the measurement of src dependent suspension growth.

The next data set concerns K562 Cells. In words: K562 cell assay. In kind it is cell-based. Conditions: Homo sapiens. How it is done:
(§1) The cell assays were performed as noted in Cancer Research 63, 375-381 (2003).

Another data set has as its system HT29 cells. In words: HT29 Xenograft Assay. Conditions: 100 mg/kg oral gavage once a day for 14 days; at day 14; female nude mice. In kind it is in vivo. How it is done: All animal studies were conducted under an approved Institutional Animal Care and Use Committee protocol. HT29 cells were suspended to 50 million cells/ml and 0.2 ml of the cell suspension was injected into 6-7 weeks old female nude mice (Charles River, Wilmington, Mass.). […] At day 14 the T/C (growth of tumors in treated animals/growth of tumors in control animals) was 0.53.

The subject of the next data set is KU812 Cells. In words: KU812 cell assay. In kind it is cell-based. Conditions: Homo sapiens. As to the method:
as §1

For the next data set, the target named is T2, Wild type c-Abl (Homo sapiens, UniProt P00519).
T2 construct: purchased Panvera P3049
In words: Abl Kinase Assay (LANCE FRET). It counts as biochemical. Conditions: 100 μM ATP; read-out: c-Abl enzyme IC50. How it is done: Wild type c-Abl was purchased from Panvera (P3049). Biotinylated peptide for the Abl kinase assay was obtained from Synpep (Biotin-NH-[…]-COOH). Homogeneous fluorescence resonance energy transfer kinase assays were performed using the europium/APC detection format (LANCE, Perkin Elmer). Abl enzyme (2.5 ng c-Abl) was mixed with biotinylated peptide (final concentration 2 μM), 50 mM Hepes (pH 7.5), 10 mM MgCl2, 20 ug/ml BSA, and 0.001% Brij-35 (Sigma). Compound was added with a final DMSO concentration of 1%, and incubated for ten minutes at 27° C. The kinase reaction was initiated by addition of ATP to a final concentration of 100 μM, and incubated for 30 minutes at 27° C. The reaction was stopped with EDTA at a final concentration of 30 mM EDTA/25 mM Hepes (pH 7.5)/10 μg/ml BSA. The mixture was combined with Eu-labeled phosphotyrosine antibody PT66 (Perkin Elmer, AD0068) and Streptavidin Surelight-APC (Perkin Elmer, CR130-100) in 50 mM Hepes (pH 7.5)/20 μg/ml BSA, and incubated for 30 minutes according to manufacturer's specifications. The reaction was monitored on a Wallac Victor with excitation at 340 nm and emission at 665 nm. Data was analyzed with the LSW data analysis plug-in for Excel (Microsoft).

Data set [3] has as its target T3, Rat2 fibroblasts stably transformed with v-Src/Hu Lck fusion gene (Homo sapiens, UniProt P06239, cells depend on it, form not given).
T3 construct: fused on or other part: v-Src of Rous sarcoma virus outside the catalytic domain (N-terminal unique/SH3/SH2 region and C-terminal tail); candidates are Schmidt-Ruppin A (P00524) and Prague C (P00526)
In words: Anchorage Independent Lck-transformed Fibroblast Proliferation Assay. It counts as cell-based, rat. As to conditions: suspension growth, MTS on Day 5; multiple entries = tested multiple times; read-out: Lck cells IC50. The text has this: Rat2 fibroblasts stably transformed with a plasmid containing a CMV promotor controlled v-Src/Hu Lck fusion gene in which the catalytic domain of human Lck was inserted in place of the v-Src catalytic domain in the v-Src gene are used for the measurement of src dependent suspension growth.

Where [4] appears, read: single value, read-out: Src Enzyme IC50.
The mark [5] stands for this setting: single value, read-out: Src Cell IC50.
Where [6] appears, read: 100 μM ATP, multiple entries = tested multiple times, read-out: Src enzyme IC50.
The mark [7] stands for this setting: suspension growth, MTS on Day 5, multiple entries = tested multiple times, read-out: Src cells IC50.

T2 sequence (P00519 whole entry): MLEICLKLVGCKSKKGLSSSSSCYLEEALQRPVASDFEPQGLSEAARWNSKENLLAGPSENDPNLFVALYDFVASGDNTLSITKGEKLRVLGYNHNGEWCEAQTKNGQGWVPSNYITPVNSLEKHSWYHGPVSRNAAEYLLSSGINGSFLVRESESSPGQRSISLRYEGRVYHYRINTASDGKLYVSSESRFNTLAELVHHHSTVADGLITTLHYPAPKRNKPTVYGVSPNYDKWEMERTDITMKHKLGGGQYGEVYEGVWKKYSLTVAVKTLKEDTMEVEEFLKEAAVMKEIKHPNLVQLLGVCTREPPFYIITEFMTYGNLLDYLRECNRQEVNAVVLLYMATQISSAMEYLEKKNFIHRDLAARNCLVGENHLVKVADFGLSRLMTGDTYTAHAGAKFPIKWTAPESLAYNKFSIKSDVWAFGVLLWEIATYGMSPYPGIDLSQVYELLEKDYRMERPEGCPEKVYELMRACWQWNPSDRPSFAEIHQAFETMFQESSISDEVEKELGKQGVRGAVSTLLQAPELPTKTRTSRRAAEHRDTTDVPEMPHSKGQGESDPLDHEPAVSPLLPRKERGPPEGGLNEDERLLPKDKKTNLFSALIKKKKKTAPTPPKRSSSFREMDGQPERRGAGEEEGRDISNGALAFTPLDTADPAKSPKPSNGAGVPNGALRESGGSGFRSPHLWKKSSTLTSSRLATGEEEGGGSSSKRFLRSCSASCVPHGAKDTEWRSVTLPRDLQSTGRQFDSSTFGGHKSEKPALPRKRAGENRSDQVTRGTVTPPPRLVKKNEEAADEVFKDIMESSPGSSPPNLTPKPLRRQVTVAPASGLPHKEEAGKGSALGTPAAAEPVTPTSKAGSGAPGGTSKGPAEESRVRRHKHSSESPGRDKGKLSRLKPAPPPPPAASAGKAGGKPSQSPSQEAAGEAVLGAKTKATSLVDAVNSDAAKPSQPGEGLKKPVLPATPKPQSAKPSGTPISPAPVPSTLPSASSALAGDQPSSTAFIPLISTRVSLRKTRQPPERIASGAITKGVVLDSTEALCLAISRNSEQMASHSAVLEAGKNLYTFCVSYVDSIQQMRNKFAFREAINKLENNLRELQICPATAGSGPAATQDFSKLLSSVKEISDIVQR
T1 sequence (P12931 whole entry): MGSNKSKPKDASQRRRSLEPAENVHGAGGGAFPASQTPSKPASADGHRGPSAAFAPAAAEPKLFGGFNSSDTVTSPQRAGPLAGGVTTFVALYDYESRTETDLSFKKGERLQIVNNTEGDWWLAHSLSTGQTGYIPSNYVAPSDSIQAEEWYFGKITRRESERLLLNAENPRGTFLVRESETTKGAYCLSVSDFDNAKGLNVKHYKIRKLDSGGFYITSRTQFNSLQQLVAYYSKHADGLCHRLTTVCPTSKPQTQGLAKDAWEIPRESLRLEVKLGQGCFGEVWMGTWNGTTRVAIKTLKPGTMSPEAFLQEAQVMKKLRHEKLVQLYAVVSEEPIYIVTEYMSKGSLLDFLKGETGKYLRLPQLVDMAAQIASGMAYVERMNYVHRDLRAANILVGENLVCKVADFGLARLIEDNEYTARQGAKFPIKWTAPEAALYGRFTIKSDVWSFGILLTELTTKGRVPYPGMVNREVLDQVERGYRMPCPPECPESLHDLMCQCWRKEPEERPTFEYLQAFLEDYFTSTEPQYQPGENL
Rat2 fibroblasts stably transformed with v-Src/Hu c-Src fusion gene, sequence (P12931 whole entry, stated change not applied, the tested form may be a part): as the sequence (P12931 whole entry) above
T3 sequence (P06239 whole entry, change not shown, the tested form may be a part): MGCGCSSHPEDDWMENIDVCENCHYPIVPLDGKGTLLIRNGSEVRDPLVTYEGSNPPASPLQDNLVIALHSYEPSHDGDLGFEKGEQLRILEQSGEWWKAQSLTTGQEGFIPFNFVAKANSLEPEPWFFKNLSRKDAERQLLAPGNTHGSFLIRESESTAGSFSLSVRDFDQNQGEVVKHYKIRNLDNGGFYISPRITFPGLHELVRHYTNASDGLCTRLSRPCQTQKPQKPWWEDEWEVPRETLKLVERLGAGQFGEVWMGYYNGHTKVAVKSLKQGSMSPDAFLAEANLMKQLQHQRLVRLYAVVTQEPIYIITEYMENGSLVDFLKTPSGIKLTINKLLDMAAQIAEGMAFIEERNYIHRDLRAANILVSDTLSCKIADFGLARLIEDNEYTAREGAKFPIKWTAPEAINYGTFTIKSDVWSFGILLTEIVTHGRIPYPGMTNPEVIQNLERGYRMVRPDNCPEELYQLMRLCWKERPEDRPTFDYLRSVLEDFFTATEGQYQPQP

As for `c1ccsc1` [thiophene, reference compound], the half-maximal inhibitory concentration (IC50) – broadly, the concentration that inhibits the measured activity by half – in data set [1] (setting [4]) was 3.7 nM. The GI50 in data set [2] (setting [5]) came to 94 nM.

With `COc1cc(Nc2c(C#N)cnc3cc(-c4coc(CN5CCN(C)CC5)c4)c(OC)cc23)c(Cl)cc1Cl` [Example 1], the melting point – broadly, the temperature, or range, at which the solid turns liquid – lay in the range of 179 to 181 °C. The IC50 with K562 Cells was found to be 5.6 nM. In data set [1] (setting [6]), the IC50 was 1 nM and 0.6 nM and 0.7 nM. The IC50 in data set [1] (setting [4]) came to 0.8 nM. In addition, in the data set on HT29 cells, the “T/C (growth of tumors in treated animals/growth of tumors in control animals)” value worked out at 0.53. Moreover, the IC50 with KU812 Cells worked out at 6 nM. Moreover, the IC50 at Wild type c-Abl was 0.4 nM and 0.27 nM and 0.25 nM. In addition, the GI50 in data set [2] (setting [5]) stood at 15 nM. Besides, in data set [2] (setting [7]), the GI50 was 16 nM.

Compound `COc1ccc(N2CCN(Cc3cc(-c4cc5ncc(C#N)c(Nc6cc(OC)c(Cl)cc6Cl)c5cc4OC)co3)CC2)c(OC)c1` [Example 5, 4-[(2,4-Dichloro-5-methoxyphenyl)amino]-6-methoxy-7-(5-{[4-(2,4-dimethoxyphenyl)piperazin-1-yl]methyl}-3-furyl)-3-quinolinecarbonitrile] showed a melting point of 223 to 225 °C. Moreover, the IC50 in data set [1] (setting [6]) is 3.5 nM and 3.1 nM. Also, the GI50 in data set [3] was 246 nM and 203 nM and 239 nM. For the same compound, the GI50 in data set [2] (setting [7]) was 19 nM and 17 nM.

For `COc1cc(Nc2c(C#N)cnc3cc(-c4coc(CN(C)C)c4)c(OC)cc23)c(Cl)cc1Cl` [Example 2, 4-[(2,4-Dichloro-5-methoxyphenyl)amino]-6-methoxy-7-{5-[(dimethylamino)methyl]-3-furyl}-3-quinolinecarbonitrile], the melting point was in the range of 133 to 138 °C. The GI50 in data set [3] worked out at 11 nM.

`COc1cc(Nc2c(C#N)cnc3cc(-c4coc(CN5CCN(c6ccccc6)CC5)c4)c(OC)cc23)c(Cl)cc1Cl` [Example 4, 4-[(2,4-Dichloro-5-methoxyphenyl)amino]-6-methoxy-7-{5-[(4-phenylpiperazin-1-yl)methyl]-3-furyl}-3-quinolinecarbonitrile] gave a melting point of 201 to 203 °C. Besides, the GI50 in data set [3] was 353 nM and 447 nM.

Turning to `CCCN(CCC)Cc1cc(-c2cc3ncc(C#N)c(Nc4cc(OC)c(Cl)cc4Cl)c3cc2OC)co1` [Example 16, 4-[(2,4-dichloro-5-methoxyphenyl)amino]-7-{5-[(dipropylamino)methyl]-3-furyl]-6-methoxyquinoline-3-carbonitrile], the IC50 in data set [1] (setting [6]) is 10.2 nM and 6.5 nM.

Take `CCN(CC)CCCN1CCN(Cc2cc(-c3cc4ncc(C#N)c(Nc5cc(OC)c(Cl)cc5Cl)c4cc3OC)co2)CC1` [Example 33, 4-[(2,4-dichloro-5-methoxyphenyl)amino]-7-[5-({4-[3-(diethylamino)propyl]piperazin-1-yl}methyl)-3-furyl]-6-methoxyquinoline-3-carbonitrile]: in data set [1] (setting [6]), the IC50 was found to be 2 nM.

Take `COc1cc(Nc2c(C#N)cnc3cc(-c4coc(CN5CCN(c6ccc(Cl)cc6)CC5)c4)c(OC)cc23)c(Cl)cc1Cl` [Example 23, 7-(5-{[4-(4-chlorophenyl)piperazin-1-yl]methyl}-3-furyl)-4-[(2,4-dichloro-5-methoxyphenyl)amino]-6-methoxyquinoline-3-carbonitrile]: in data set [1] (setting [6]), the IC50 is 18.9 nM and 17 nM.

Regarding `COc1cc(Nc2c(C#N)cnc3cc(-c4coc(CN5CCCCC5)c4)c(OC)cc23)c(Cl)cc1Cl` [Example 7, 4-[(2,4-dichloro-5-methoxyphenyl)amino]-6-methoxy-7-[5-(piperidin-1-ylmethyl)-3-furyl]quinoline-3-carbonitrile], the IC50 in data set [1] (Src enzyme IC50, 100 μM ATP, multiple entries = tested multiple times) turned out to be 0.7 nM.

Consider `CCN(CC)Cc1cc(-c2cc3ncc(C#N)c(Nc4cc(OC)c(Cl)cc4Cl)c3cc2OC)co1` [Example 8, 4-[(2,4-dichloro-5-methoxyphenyl)amino]-7-{5-[(diethylamino)methyl]-3-furyl}-6-methoxyquinoline-3-carbonitrile], for which, in data set [1] (setting [6]), the IC50 is 0.9 nM and 0.8 nM.

Regarding `COc1cc(Nc2c(C#N)cnc3cc(-c4coc(CN(C)CCN(C)C)c4)c(OC)cc23)c(Cl)cc1Cl` [Example 27, 4-[(2,4-dichloro-5-methoxyphenyl)amino]-7-(5-{[[2-(dimethylamino)ethyl](methyl)amino]methyl}-3-furyl)-6-methoxyquinoline-3-carbonitrile], the IC50 in data set [1] (setting [6]) is 3.2 nM and 2.5 nM.

For `COc1cc(Nc2c(C#N)cnc3cc(-c4coc(CN5CCC(N6CCCC6)CC5)c4)c(OC)cc23)c(Cl)cc1Cl` [Example 11, 4-[(2,4-dichloro-5-methoxyphenyl)amino]-6-methoxy-7-{5-[(4-pyrrolidin-1-ylpiperidin-1-yl)methyl]-3-furyl}quinoline-3-carbonitrile], in data set [1] (setting [6]), the IC50 is 1.1 nM and 1 nM.

As for `CCN1CCN(Cc2cc(-c3cc4ncc(C#N)c(Nc5cc(OC)c(Cl)cc5Cl)c4cc3OC)co2)CC1` [Example 9, 4-[(2,4-dichloro-5-methoxyphenyl)amino]-7-{5-[(4-ethylpiperazin-1-yl)methyl]-3-furyl}-6-methoxyquinoline-3-carbonitrile], in data set [1] (setting [6]), the IC50 is 0.6 nM and 0.7 nM.

In turn, `COc1cc(Nc2c(C#N)cnc3cc(-c4coc(CN5CCOCC5)c4)c(OC)cc23)c(Cl)cc1Cl` [Example 3, 4-[(2,4-Dichloro-5-methoxyphenyl)amino]-6-methoxy-7-[5-(morpholin-4-ylmethyl)-3-furyl]-3-quinolinecarbonitrile] gave a melting point of 164 to 166 °C.

Take `COCCN1CCN(Cc2cc(-c3cc4ncc(C#N)c(Nc5cc(OC)c(Cl)cc5Cl)c4cc3OC)co2)CC1` [Example 30, 4-[(2,4-dichloro-5-methoxyphenyl)amino]-6-methoxy-7-(5-{[4-(2-methoxyethyl)piperazin-1-yl]methyl}-3-furyl)quinoline-3-carbonitrile]: in data set [1] (setting [6]), the half-maximal inhibitory concentration (IC50) was 1.9 nM and 1.7 nM.

Turning to `COc1cc(Nc2c(C#N)cnc3cc(-c4coc(CN5CCN(c6ccc(O)cc6)CC5)c4)c(OC)cc23)c(Cl)cc1Cl` [Example 24, 4-[(2,4-dichloro-5-methoxyphenyl)amino]-7-(5-{[4-(4-hydroxyphenyl)piperazin-1-yl]methyl}-3-furyl)-6-methoxyquinoline-3-carbonitrile], the IC50 in data set [1] (setting [6]) is 6 nM and 5.6 nM.
